What was measured:
[1] = Inhibition of SARS-CoV-2 MPro using Boc-Abu-Tle-Leu-Gln-AMC as substrate preincubated for 5 mins followed by substrate addition and measured after 60 mins; parameters: species or system Severe acute respiratory syndrome coronavirus 2
Calu-3 = experiment: Cytotoxicity against human Calu-3 cells assessed as reduction in cell viability at 10 uM measured after 24 hrs by celltiter-glo assay; format: functional, cell-based
[2] = Inhibition of MERS-CoV Main protease using Ac-Abu-Tle-Leu-Gln-ACC as substrate incubated for 15 mins by fluorescence based microplate reader analysis; parameters: species or system Middle East respiratory syndrome-related coronavirus
SARS-CoV-2 = format: functional, organism-based; conditions: Severe acute respiratory syndrome coronavirus 2, B.1.513, Calu-3
[3] = Inhibition of recombinant SARS-CoV-1 Main protease using Ac-Abu-Tle-Leu-Gln-ACC as substrate incubated for 15 mins by fluorescence based microplate reader analysis; parameters: species or system Severe acute respiratory syndrome-related coronavirus
[4] = system: Severe acute respiratory syndrome coronavirus 2; experiment: Inhibition of SARS-CoV-2 MPro using Boc-Abu-Tle-Leu-Gln-AMC as substrate assessed as Kinact/Ki ratio preincubated for 5 mins followed by substrate addition and measured after 60 mins; conditions: time 65.0 min

SMILES	IC50 [1] [nM]	Activity (Calu-3)	IC50 [2] [nM]	EC50 (SARS-CoV-2) [nM]	IC50 [3] [nM]	Ratio [4] [M⁻¹ s⁻¹]
C=CC(=O)[C@H](Cc1ccccc1)NC(=O)[C@H](CC(C)C)NC(=O)COc1cccc(OC)c1	89	Not toxic	565	557	57	
C=CC(=O)[C@H](Cc1ccccc1)NC(=O)[C@H](CC(C)C)NC(=O)c1sc(-c2ccccc2)nc1C	117					29000
C=CC(=O)[C@H](Cc1ccccc1)NC(=O)[C@H](CC(C)C)NC(=O)c1cc(C)on1	449					21300
C=CC(=O)[C@H](Cc1ccccc1)NC(=O)[C@H](CC(C)C)NC(=O)/C=C/c1ccc(Cl)cc1	63	Not toxic		230		
C=CC(=O)[C@H](Cc1ccccc1)NC(=O)[C@H](CC(C)C)NC(=O)/C=C/c1ccccc1	131				110	9630
CC(C)C[C@H](NC(=O)OCc1ccccc1)C(=O)N[C@H](C=O)C[C@@H]1CCNC1=O			78		44	
C=CC(=O)[C@H](Cc1ccccc1)NC(=O)[C@H](CC(C)C)NC(=O)COc1cccc(N(C)C)c1	131	Not toxic				22600
CC(C)C[C@H](NC(=O)CSc1ccccc1)C(=O)N[C@@H](Cc1ccccc1)C(=O)c1nc2ccccc2s1	> 10000					
C=CC(=O)[C@H](Cc1ccccc1)NC(=O)[C@H](CC(C)C)NC(=O)c1cc2ccccc2o1	405		942		20	9900
C=CC(=O)[C@H](Cc1ccccc1)NC(=O)[C@H](CC(C)C)NC(=O)CCc1ccc(N(C)C)cc1	152					14700
C=CC(=O)[C@H](Cc1ccccc1)NC(=O)[C@H](CC(C)C)NC(=O)c1ccc(-c2ccccc2)o1	363		538		22	16400
C=CC(=O)[C@H](Cc1ccccc1)NC(=O)[C@H](CC(C)C)NC(=O)C1CCc2ccccc2O1 (some centres undefined)	227					14900
C=CC(=O)[C@H](Cc1c[nH]c2ccccc12)NC(=O)[C@H](CC(C)C)NC(=O)COc1ccc(Cl)cc1Cl	316		1080		58	
C=CC(=O)[C@H](Cc1ccccc1F)NC(=O)[C@H](CC(C)C)NC(=O)COc1ccc(Cl)cc1Cl	159					13300
CC(C)C[C@H](NC(=O)c1cc2ccccc2o1)C(=O)N[C@@H](Cc1ccccc1)C(=O)C=CN(C)C	> 10000					
C=CC(=O)[C@H](Cc1ccccc1)NC(=O)[C@H](CC(C)C)NC(=O)c1cc2ccccc2s1	221					21700
C=CC(=O)[C@H](Cc1ccccc1)NC(=O)[C@H](CC(C)C)NC(=O)/C=C/c1ccc(Cl)cc1Cl	338					7000
C=CC(=O)[C@H](Cc1ccccc1)NC(=O)[C@H](CC(C)C)NC(=O)c1cc(C(C)(C)C)nn1C	599					5400
C=CC(=O)[C@H](Cc1ccccc1)NC(=O)[C@H](CC(C)C)NC(=O)C1CC1c1ccccc1 (some centres undefined)	138					14500
C=CC(=O)[C@H](Cc1ccccc1)NC(=O)[C@H](CC(C)C)NC(=O)CCc1ccc(OC(F)(F)F)cc1	184					14000
CC(C)C[C@H](NC(=O)c1cc2ccccc2s1)C(=O)N[C@@H](Cc1ccccc1)C(=O)C=CN(C)C	18900					
C=CC(=O)[C@H](Cc1ccccc1)NC(=O)[C@H](CC(C)C)NC(=O)CCc1ccccc1	187					16100
C=CC(=O)[C@H](Cc1ccccc1)NC(=O)[C@H](CC(C)C)NC(=O)COc1cc(Cl)c(Cl)cc1Cl	134					26500
C=CC(=O)[C@H](Cc1ccccc1)NC(=O)[C@H](CC(C)C)NC(=O)c1csc(-c2ccccc2)n1	151					32500
CC(C)C(=O)OC[C@H]1O[C@@H](n2cc/c(=N\O)[nH]c2=O)[C@H](O)[C@@H]1O [MOLNUPIRAVIR]				3.23		
C=CC(=O)[C@H](Cc1ccccc1)NC(=O)[C@H](CC(C)C)NC(=O)c1ccc(-c2ccccc2)s1	183					15500
